The target in this data set is Multidrug resistance-associated protein 1 (Homo sapiens, UniProt P33527). The data set is described as follows: TP_TRANSPORTER: uptake in membrane vesicle from MRP1-expressing HeLa cells. Type of data set: functional, cell membranes.

Each structure is given as a SMILES string.

Multidrug resistance-associated protein 1, sequence (P33527 whole entry): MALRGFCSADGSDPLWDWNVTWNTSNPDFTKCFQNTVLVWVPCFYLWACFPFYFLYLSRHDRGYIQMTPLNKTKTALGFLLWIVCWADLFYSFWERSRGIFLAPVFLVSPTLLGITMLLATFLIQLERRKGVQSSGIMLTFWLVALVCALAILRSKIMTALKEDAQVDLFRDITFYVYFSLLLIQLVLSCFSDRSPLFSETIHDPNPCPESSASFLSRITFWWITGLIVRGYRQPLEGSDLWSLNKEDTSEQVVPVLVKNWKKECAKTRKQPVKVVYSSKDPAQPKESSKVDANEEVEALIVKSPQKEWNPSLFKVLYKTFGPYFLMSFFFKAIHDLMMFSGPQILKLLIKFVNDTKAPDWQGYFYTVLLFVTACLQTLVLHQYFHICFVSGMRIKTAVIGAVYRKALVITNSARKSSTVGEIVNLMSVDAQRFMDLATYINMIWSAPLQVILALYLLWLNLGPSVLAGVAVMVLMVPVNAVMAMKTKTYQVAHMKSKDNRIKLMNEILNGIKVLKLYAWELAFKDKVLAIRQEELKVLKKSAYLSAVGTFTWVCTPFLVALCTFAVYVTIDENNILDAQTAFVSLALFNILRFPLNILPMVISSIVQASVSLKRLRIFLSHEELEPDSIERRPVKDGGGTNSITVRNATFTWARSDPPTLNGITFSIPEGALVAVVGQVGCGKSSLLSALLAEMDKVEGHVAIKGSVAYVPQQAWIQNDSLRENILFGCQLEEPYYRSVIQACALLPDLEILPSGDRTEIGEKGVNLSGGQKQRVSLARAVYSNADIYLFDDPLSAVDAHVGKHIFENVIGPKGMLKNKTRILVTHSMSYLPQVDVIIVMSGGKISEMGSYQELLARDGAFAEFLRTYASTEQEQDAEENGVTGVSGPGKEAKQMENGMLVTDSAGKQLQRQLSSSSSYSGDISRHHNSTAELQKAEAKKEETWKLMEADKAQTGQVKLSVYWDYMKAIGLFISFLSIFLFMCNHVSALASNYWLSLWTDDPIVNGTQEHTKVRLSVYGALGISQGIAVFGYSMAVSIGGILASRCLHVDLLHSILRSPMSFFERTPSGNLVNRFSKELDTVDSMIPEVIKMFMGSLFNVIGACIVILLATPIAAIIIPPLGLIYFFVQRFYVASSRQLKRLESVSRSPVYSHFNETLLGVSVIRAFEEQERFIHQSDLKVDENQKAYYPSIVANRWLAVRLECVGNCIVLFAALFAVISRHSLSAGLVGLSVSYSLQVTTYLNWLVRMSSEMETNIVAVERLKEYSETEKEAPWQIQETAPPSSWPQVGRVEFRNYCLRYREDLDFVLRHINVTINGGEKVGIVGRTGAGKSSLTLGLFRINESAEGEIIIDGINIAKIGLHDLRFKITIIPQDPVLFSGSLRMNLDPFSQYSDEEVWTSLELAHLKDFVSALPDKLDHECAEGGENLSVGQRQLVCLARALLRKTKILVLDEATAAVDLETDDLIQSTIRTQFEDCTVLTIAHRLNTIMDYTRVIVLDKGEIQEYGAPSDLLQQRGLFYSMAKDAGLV

As to `C=C(NCC(=O)O)[C@H](CSCCN(CCSC[C@H](NC(=O)CC[C@H](N)C(=O)O)C(=O)NCC(=O)O)c1ccc(CCCC(=O)O)cc1)NC(=O)CC[C@H](N)C(=O)O` [BISGLUTATHIONYL CHLORAMBUCIL], the Activity result was “substrate [+]”.

Regarding `NC(CCC(=O)NC(CSCCN(CCO)c1ccc(CCCC(=O)O)cc1)C(=O)NCC(=O)O)C(=O)O` (configuration not stated) [MONOHYDROXY MONOGLUTATHIONYL CHLORAMBUCIL], the Activity result is “substrate [+]”.

The values above are taken from ChEMBL document CHEMBL2074316, “Multidrug resistance protein-mediated transport of chlorambucil and melphalan conjugated to glutathione” (Br J Cancer, 1998).
